Read-outs that look alike come from different tables or passages of the source. * marks the point of attachment. Exatecan = CC[C@@]1(O)C(=O)OCc2c1cc1n(c2=O)Cc2c-1nc1cc(F)c(C)c3c1c2[C@@H](N*)CC3

Series [1] concerns Meth A tumor-bearing mice. Description: Antitumor activity, Meth A tumor-bearing mice, single administration on day 7. It is filed as in vivo, mouse. The method, then: (§1) Meth A tumor-bearing mice were prepared (7 mice per group) by subcutaneously transplanting 1×10^6 mouse fibrosarcoma Meth A cells into the right inguinal regions of BALB/c male mice (7-week old). On day 7, the drug complex of Example 9 dissolved in distilled water for injection was injected in the tail vein of the Meth A tumor-bearing mice every 4 days 4 times. On day 21 after the transplantation, tumor masses were excised and weighed to calculate the inhibition rate of tumor growth according to the following equation: inhibition rate of tumor growth (%)=[1-(average tumor weight of the group administered with the test sample/average tumor weight of control group)]×100.
Meth A tumor-bearing mice (6 mice per group) were prepared according to a similar manner to that of Example 11 and the antitumor activity was compared to that obtained by single administration of the drug complexes of Examples 8 and 9 once on day 7.
Meth A tumor-bearing mice (6 mice per group) were prepared according to a similar manner to that of Example 11 and the antitumor activity of the drug complex of Example 15 was examined by single administration in a similar manner to that of Example 12.
Meth A tumor-bearing mice (6 mice per group) were prepared according to a similar manner to that of Example 1, and the antitumor activity of the drug complex of Example 41 was examined in the cases of single administration in a similar manner to that of Example 12, and its antitumor activity was compared to that of the drug compound, per se.
Meth A tumor-bearing mice (6 mice per group) were prepared according to a similar manner to that of Example 11, and the antitumor activity was examined according to a similar method to that in Example 12 by single administration of the drug complexes of Examples 29, 43, and 44, respectively.

Series [2] relates to SC-6 human gastric tumor. Description: Antitumor activity, SC-6 tumor-bearing nude mice, single i.v. administration. The format is in vivo, human tumor in nude mice. The conditions noted are these: for Inhibition rate / Numbers of died mice/mice used: calculated based on the drug compound. The procedure:
(§2) SC-6 tumor-bearing nude mice (5 mice per group) were prepared by subcutaneously transplanting a piece of SC-6 human gastric tumor block into the right inguinal regions of nude mice (13AI,B/c-nu/nu, male). On day 27 after the transplantation, the drug complex of Example 15 dissolved in distilled water for injection was given as a single intravenous administration and its antitumor activity was compared to that of the drug compound, per se.

For series [3], the system named is Human lung cancer QG-90. Description: Antitumor activity, human lung cancer QG-90-bearing nude mice, single i.v. administration. The format is in vivo, human tumor in nude mice. The conditions noted are these: for Inhibition rate / Numbers of died mice/mice used: calculated based on the drug compound. The procedure: as §2
Human lung cancer QG-90-bearing nude mice (5 mice per group) were prepared according to a similar manner to that of Example 53. On day 16 after the transplantaion, the drug complex of Example 15 dissolved in distilled water for injection was given as a single intravenous administration and its antitumor activity was compared to that of the drug compound, per se.

Series [4] relates to Meth A tumor-bearing mice. As to the kind of experiment: Pharmacokinetics of the drug complex in Meth A tumor-bearing mice. It is filed as in vivo, mouse. The settings on record: 10 mg/kg single, calculated as the drug compound. The procedure:
Meth A tumor-bearing mice were prepared according to a similar manner to that of Example 11, the drug complex of Example 15 was given as single administration in a similar manner to that of Example 12 (10 mg/kg: calculated as the drug compound), and the change of the drug complex concentration in various tissues was determined.

The conditions of series [5]: cited from earlier work.
Series [6] has as its system Meth A tumor-bearing mice. Description: Antitumor activity, Meth A tumor-bearing mice, i.v. every 4 days 4 times. The format is in vivo, mouse. The settings on record: for Inhibition rate: calculated based on the drug compound, day 21. The method, then:
as §1

The mark [7] stands for this setting: single administration, compared to the drug compound, per se.
Where [8] appears, read: single i.v., compared to the drug compound, per se.
Setting [9] is: Example 11, every 4 days 4 times.

On to “Carboxymethyldextran Polyalcohol-Gly-Gly-Phe-Gly-NH--A' (A--NH2 =DX-8951) [Example 15] ({carboxymethyldextran polyalcohol}-GGFG-Exatecan; also: N-terminus linked to carboxymethyldextran polyalcohol, C-terminus amide-linked to drug residue A' (DX-8951))”, for which the Inhibition rate in series [1] (Example 52 (table 4), 1.25 mg/kg single, calculated based on the drug compound) is recorded as 83%; in series [1] (Example 52 (table 4), 2.5 mg/kg single, calculated based on the drug compound), 95%; in series [1] (Example 52 (table 4), 5 mg/kg single, calculated based on the drug compound) it was 99%; in series [1] (Example 52 (table 4), 10 mg/kg single, calculated based on the drug compound) it was 100%; in series [2] (2 mg/kg single i.v.), 71%; in series [2] (8 mg/kg single i.v.), 100%. The figures for the Inhibition rate in series [3] (1.75 mg/kg single i.v.) and in series [3] (7 mg/kg single i.v.) were 97% and 98%, respectively. The “antitumor activity (in words)” value in series [1] (setting [7]) is “remarkably enhanced antitumor activity”; in series [2] (setting [8]), “higher antitumor activity compared to the drug compound, per se”; in series [3] (setting [8]), “remarkably enhanced antitumor activity”. Further, the “effective dose-range (in words)” value in series [1] (setting [7]) and in series [3] (setting [8]) was “broader effective dose-range” each time. Moreover, the “Numbers of died mice/mice used” value in series [2] (2 mg/kg single i.v.), in series [2] (8 mg/kg single i.v.), in series [3] (1.75 mg/kg single i.v.) and in series [3] (7 mg/kg single i.v.) was 0/5 in each case. The “death due to toxicity (in words)” value in series [2] (single i.v.) is recorded as “no death due to toxicity”. For the same compound, the “distribution in tumor tissues” value in series [4] is “high distribution in tumor tissues”. In series [4], the “retention of blood level” value is recorded as “extremely long retention of blood level”. In addition, in series [4], the “tumor selectivity against liver and small intestine” value was “high tumor selectivity against liver and small intestine”.
Consider `CC[C@@]1(O)C(=O)OCc2c1cc1n(c2=O)Cc2c-1nc1cc(F)c(C)c3c1c2[C@@H](N)CC3` [DX-8951, (1S,9S)-1-amino-9-ethyl-5-fluoro-2,3-dihydro-9-hydroxy-4-methyl-1H,12H-benzo[de]pyrano[3',4':6,7]indolizino[1,2-b]quinoline-10,13(9H,15H)-dione, reference compound], for which the Inhibition rate was determined as 59% in series [1] (Example 12 (Table 3), 20 mg/kg single) and 77% in series [1] (Example 12 (Table 3), 60 mg/kg single). The lactone ring equilibrium entry in series [5] (acidic aqueous medium, approximately at pH 3) is “compound whose lactone ring is closed”; in series [5] (basic aqueous medium, approximately at pH 10) it was “compound whose lactone ring is opened”.
With “Carboxymethyldextran Polyalcohol-Gly-Gly-Phe-Gly-NH--A' (A--NH2 =DX-8951) [Example 9] ({carboxymethyldextran polyalcohol}-GGFG-Exatecan; also: N-terminus linked to carboxymethyldextran polyalcohol, C-terminus amide-linked to drug residue A' (DX-8951))”, the Inhibition rate is recorded as 41% in series [6] (0.35 × 4 mg/kg); 59% in series [6] (0.7 × 4 mg/kg); 94% in series [6] (1.4 × 4 mg/kg); 87% in series [1] (Example 12 (Table 3), 2.5 mg/kg single, calculated based on the drug compound); 98% in series [1] (Example 12 (Table 3), 5 mg/kg single, calculated based on the drug compound). Besides, the “antitumor activity (in words)” value in series [6] (setting [9]) was “remarkably enhanced antitumor activity compared to the drug compound, per se”; in series [1] (setting [7]), “(Polysaccharide derivative)-Gly-Gly-Phe-Gly-NH--A'> (Polysaccharide derivative)-Gly-Gly-Gly-Phe-NH--A'> the drug compound, per se”. Moreover, in series [6] (setting [9]), the “toxicity (weight loss)” value is “no toxicity (weight loss)”.

The values above are taken from patent publication US6291671A, “Process for producing drug complexes” (Daiichi Pharmaceutical Co., Ltd., priority 1996, dated 2001).
